According to the supplement of paper PMC10307832:

Legend:
Assay in all cases: relative viability (nuclei count vs DMSO), 5 days (fraction); higher = more cells survive
MK-8033 + Vorinostat = compound: Cn1cc(-c2cnc3ccc4ccc(CS(=O)(=O)NCc5ccccn5)cc4c(=O)c3c2)cn1 [MK-8033] + O=C(CCCCCCC(=O)Nc1ccccc1)NO [Vorinostat] (partner 1 µM)
Method in brief: (§1)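 Relative viability equals treated-well nuclei counts divided by vehicle-well nuclei counts. Counts came from 4× images of lung cancer cell lines grown in 1536-well plates for 5 days after pin-tool dosing on the day after seeding. Dosing used one drug alone or a fixed anchor-drug dose plus five library-drug doses (not always all listed) in √10 steps, and values are medians of duplicate plates.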

MK-8033 + Decitabine = compound: Cn1cc(-c2cnc3ccc4ccc(CS(=O)(=O)NCc5ccccn5)cc4c(=O)c3c2)cn1 [MK-8033] + Nc1ncn([C@H]2C[C@H](O)[C@@H](CO)O2)c(=O)n1 [Decitabine] (partner 2 µM)
Method in brief: as §1

MK-8033 + AZD7762 = compound: Cn1cc(-c2cnc3ccc4ccc(CS(=O)(=O)NCc5ccccn5)cc4c(=O)c3c2)cn1 [MK-8033] + NC(=O)Nc1cc(-c2cccc(F)c2)sc1C(=O)N[C@H]1CCCNC1 [AZD7762] (partner 0.2 µM)
Method in brief: as §1

Irinotecan + Navitoclax = compound: CCc1c2c(nc3ccc(OC(=O)N4CCC(N5CCCCC5)CC4)cc13)-c1cc3c(c(=O)n1C2)COC(=O)[C@]3(O)CC [Irinotecan] + CC1(C)CCC(c2ccc(Cl)cc2)=C(CN2CCN(c3ccc(C(=O)NS(=O)(=O)c4ccc(N[C@H](CCN5CCOCC5)CSc5ccccc5)c(S(=O)(=O)C(F)(F)F)c4)cc3)CC2)C1 [Navitoclax] (partner 0.5 µM)
Method in brief: as §1

## NCI-H650
MK-8033 + Vorinostat; first compound 0.02 µM
  relative viability: 0.512
MK-8033 + Vorinostat; first compound 0.06325 µM
  relative viability: 0.5
MK-8033 + Vorinostat; first compound 0.2 µM
  relative viability: 0.496
MK-8033 + Vorinostat; first compound 0.6325 µM
  relative viability: 0.428
MK-8033 + Vorinostat; first compound 2 µM
  relative viability: 0.371
MK-8033 + Decitabine; first compound 0.02 µM
  relative viability: 0.335
MK-8033 + Decitabine; first compound 0.06325 µM
  relative viability: 0.329
MK-8033 + Decitabine; first compound 0.2 µM
  relative viability: 0.306
MK-8033 + Decitabine; first compound 0.6325 µM
  relative viability: 0.323
MK-8033 + Decitabine; first compound 2 µM
  relative viability: 0.323
MK-8033 + AZD7762; first compound 0.02 µM
  relative viability: 0.947
MK-8033 + AZD7762; first compound 0.06325 µM
  relative viability: 0.997
MK-8033 + AZD7762; first compound 0.2 µM
  relative viability: 0.982
MK-8033 + AZD7762; first compound 0.6325 µM
  relative viability: 0.945
MK-8033 + AZD7762; first compound 2 µM
  relative viability: 0.985

## NCI-H2023
MK-8033 + Vorinostat; first compound 0.02 µM
  relative viability: 0.857
MK-8033 + Vorinostat; first compound 0.06325 µM
  relative viability: 0.44
MK-8033 + Vorinostat; first compound 0.2 µM
  relative viability: 0.583
MK-8033 + Vorinostat; first compound 0.6325 µM
  relative viability: 0.515
MK-8033 + Vorinostat; first compound 2 µM
  relative viability: 0.491
MK-8033 + Decitabine; first compound 0.02 µM
  relative viability: 0.217
MK-8033 + Decitabine; first compound 0.06325 µM
  relative viability: 0.203
MK-8033 + Decitabine; first compound 0.2 µM
  relative viability: 0.213
MK-8033 + Decitabine; first compound 0.6325 µM
  relative viability: 0.247
MK-8033 + Decitabine; first compound 2 µM
  relative viability: 0.212
Irinotecan + Navitoclax; first compound 0.6325 µM
  relative viability: 1
Irinotecan + Navitoclax; first compound 2 µM
  relative viability: 0.812
Irinotecan + Navitoclax; first compound 6.325 µM
  relative viability: 0.277
Irinotecan + Navitoclax; first compound 20 µM
  relative viability: 0.103

## LCLC-103H
MK-8033 + Vorinostat; first compound 0.02 µM
  relative viability: 0.767
MK-8033 + Vorinostat; first compound 0.06325 µM
  relative viability: 0.719
MK-8033 + Vorinostat; first compound 0.2 µM
  relative viability: 0.753
MK-8033 + Vorinostat; first compound 0.6325 µM
  relative viability: 0.704
MK-8033 + Vorinostat; first compound 2 µM
  relative viability: 0.807
MK-8033 + Decitabine; first compound 0.02 µM
  relative viability: 0.699
MK-8033 + Decitabine; first compound 0.06325 µM
  relative viability: 0.724
MK-8033 + Decitabine; first compound 0.2 µM
  relative viability: 0.673
MK-8033 + Decitabine; first compound 0.6325 µM
  relative viability: 0.736
MK-8033 + Decitabine; first compound 2 µM
  relative viability: 0.766
MK-8033 + AZD7762; first compound 0.02 µM
  relative viability: 0.756
MK-8033 + AZD7762; first compound 0.06325 µM
  relative viability: 0.712
MK-8033 + AZD7762; first compound 0.2 µM
  relative viability: 0.788
MK-8033 + AZD7762; first compound 0.6325 µM
  relative viability: 0.741
MK-8033 + AZD7762; first compound 2 µM
  relative viability: 0.82

## NCI-H2009
MK-8033 + Vorinostat; first compound 0.02 µM
  relative viability: 0.678
MK-8033 + Vorinostat; first compound 0.06325 µM
  relative viability: 0.689
MK-8033 + Vorinostat; first compound 0.2 µM
  relative viability: 0.776
MK-8033 + Vorinostat; first compound 0.6325 µM
  relative viability: 0.733
MK-8033 + Vorinostat; first compound 2 µM
  relative viability: 0.676
MK-8033 + Decitabine; first compound 0.02 µM
  relative viability: 0.376
MK-8033 + Decitabine; first compound 0.06325 µM
  relative viability: 0.318
MK-8033 + Decitabine; first compound 0.2 µM
  relative viability: 0.351
MK-8033 + Decitabine; first compound 0.6325 µM
  relative viability: 0.372
MK-8033 + Decitabine; first compound 2 µM
  relative viability: 0.403
Irinotecan + Navitoclax; first compound 0.6325 µM
  relative viability: 0.802
Irinotecan + Navitoclax; first compound 2 µM
  relative viability: 0.58
Irinotecan + Navitoclax; first compound 6.325 µM
  relative viability: 0.19
Irinotecan + Navitoclax; first compound 20 µM
  relative viability: 0.148

## NCI-H2228
MK-8033 + Vorinostat; first compound 0.02 µM
  relative viability: 0.594
MK-8033 + Vorinostat; first compound 0.06325 µM
  relative viability: 0.562
MK-8033 + Vorinostat; first compound 0.2 µM
  relative viability: 0.417
MK-8033 + Vorinostat; first compound 0.6325 µM
  relative viability: 0.696
MK-8033 + Vorinostat; first compound 2 µM
  relative viability: 0.821
Irinotecan + Navitoclax; first compound 0.6325 µM
  relative viability: 0.875
Irinotecan + Navitoclax; first compound 2 µM
  relative viability: 0.529
Irinotecan + Navitoclax; first compound 6.325 µM
  relative viability: 0.405
Irinotecan + Navitoclax; first compound 20 µM
  relative viability: 0.51

## NCI-H522
MK-8033 + Vorinostat; first compound 0.02 µM
  relative viability: 0.796
MK-8033 + Vorinostat; first compound 0.06325 µM
  relative viability: 0.741
MK-8033 + Vorinostat; first compound 0.2 µM
  relative viability: 0.829
MK-8033 + Vorinostat; first compound 0.6325 µM
  relative viability: 0.895
MK-8033 + Vorinostat; first compound 2 µM
  relative viability: 0.942
MK-8033 + Decitabine; first compound 0.02 µM
  relative viability: 0.552
MK-8033 + Decitabine; first compound 0.06325 µM
  relative viability: 0.617
MK-8033 + Decitabine; first compound 0.2 µM
  relative viability: 0.73
MK-8033 + Decitabine; first compound 0.6325 µM
  relative viability: 0.612
MK-8033 + Decitabine; first compound 2 µM
  relative viability: 0.725
MK-8033 + AZD7762; first compound 0.02 µM
  relative viability: 0.831
MK-8033 + AZD7762; first compound 0.06325 µM
  relative viability: 0.748
MK-8033 + AZD7762; first compound 0.2 µM
  relative viability: 0.809
MK-8033 + AZD7762; first compound 0.6325 µM
  relative viability: 0.881
MK-8033 + AZD7762; first compound 2 µM
  relative viability: 0.97

## NCI-H1703
MK-8033 + AZD7762; first compound 0.02 µM
  relative viability: 0.109
MK-8033 + AZD7762; first compound 0.06325 µM
  relative viability: 0.117
MK-8033 + AZD7762; first compound 0.2 µM
  relative viability: 0.124
MK-8033 + AZD7762; first compound 0.6325 µM
  relative viability: 0.108
MK-8033 + AZD7762; first compound 2 µM
  relative viability: 0.12
Irinotecan + Navitoclax; first compound 0.6325 µM
  relative viability: 1.16
Irinotecan + Navitoclax; first compound 2 µM
  relative viability: 1.45
Irinotecan + Navitoclax; first compound 6.325 µM
  relative viability: 0.514
Irinotecan + Navitoclax; first compound 20 µM
  relative viability: 0.105

## NCI-H1650
MK-8033 + Vorinostat; first compound 0.02 µM
  relative viability: 0.507
MK-8033 + Vorinostat; first compound 0.06325 µM
  relative viability: 0.416
MK-8033 + Vorinostat; first compound 0.2 µM
  relative viability: 0.723
MK-8033 + Vorinostat; first compound 0.6325 µM
  relative viability: 0.532
MK-8033 + Vorinostat; first compound 2 µM
  relative viability: 0.562
MK-8033 + Decitabine; first compound 0.02 µM
  relative viability: 0.445
MK-8033 + Decitabine; first compound 0.06325 µM
  relative viability: 0.429
MK-8033 + Decitabine; first compound 0.2 µM
  relative viability: 0.422
MK-8033 + Decitabine; first compound 0.6325 µM
  relative viability: 0.452
MK-8033 + Decitabine; first compound 2 µM
  relative viability: 0.403
Irinotecan + Navitoclax; first compound 0.6325 µM
  relative viability: 1.07
Irinotecan + Navitoclax; first compound 2 µM
  relative viability: 0.808
Irinotecan + Navitoclax; first compound 6.325 µM
  relative viability: 0.394
Irinotecan + Navitoclax; first compound 20 µM
  relative viability: 0.316

## SW 1573
MK-8033 + Vorinostat; first compound 0.02 µM
  relative viability: 0.836
MK-8033 + Vorinostat; first compound 0.06325 µM
  relative viability: 0.681
MK-8033 + Vorinostat; first compound 0.2 µM
  relative viability: 0.7
MK-8033 + Vorinostat; first compound 0.6325 µM
  relative viability: 0.729
MK-8033 + Vorinostat; first compound 2 µM
  relative viability: 0.667
MK-8033 + Decitabine; first compound 0.02 µM
  relative viability: 0.528
MK-8033 + Decitabine; first compound 0.06325 µM
  relative viability: 0.467
MK-8033 + Decitabine; first compound 0.2 µM
  relative viability: 0.524
MK-8033 + Decitabine; first compound 0.6325 µM
  relative viability: 0.502
MK-8033 + Decitabine; first compound 2 µM
  relative viability: 0.474
Irinotecan + Navitoclax; first compound 0.6325 µM
  relative viability: 0.694
Irinotecan + Navitoclax; first compound 2 µM
  relative viability: 0.601
Irinotecan + Navitoclax; first compound 6.325 µM
  relative viability: 0.139
Irinotecan + Navitoclax; first compound 20 µM
  relative viability: 0.156

## NCI-H358
MK-8033 + Vorinostat; first compound 0.02 µM
  relative viability: 0.79
MK-8033 + Vorinostat; first compound 0.06325 µM
  relative viability: 0.503
MK-8033 + Vorinostat; first compound 0.2 µM
  relative viability: 0.579
MK-8033 + Vorinostat; first compound 0.6325 µM
  relative viability: 0.712
MK-8033 + Vorinostat; first compound 2 µM
  relative viability: 0.614
MK-8033 + Decitabine; first compound 0.02 µM
  relative viability: 0.205
MK-8033 + Decitabine; first compound 0.06325 µM
  relative viability: 0.192
MK-8033 + Decitabine; first compound 0.2 µM
  relative viability: 0.211
MK-8033 + Decitabine; first compound 0.6325 µM
  relative viability: 0.261
MK-8033 + Decitabine; first compound 2 µM
  relative viability: 0.198
MK-8033 + AZD7762; first compound 0.02 µM
  relative viability: 0.541
MK-8033 + AZD7762; first compound 0.06325 µM
  relative viability: 0.347
MK-8033 + AZD7762; first compound 0.2 µM
  relative viability: 0.431
MK-8033 + AZD7762; first compound 0.6325 µM
  relative viability: 0.428
MK-8033 + AZD7762; first compound 2 µM
  relative viability: 0.458
